Test results taken from ChEMBL document CHEMBL2202975, “Inhibition of monoamine oxidase by 8-[(phenylethyl)sulfanyl]caffeine analogues” (Bioorg Med Chem, 2012).

Biological target: T1, Amine oxidase [flavin-containing] A (Homo sapiens, UniProt P21397)
T1 sequence (P21397 whole entry): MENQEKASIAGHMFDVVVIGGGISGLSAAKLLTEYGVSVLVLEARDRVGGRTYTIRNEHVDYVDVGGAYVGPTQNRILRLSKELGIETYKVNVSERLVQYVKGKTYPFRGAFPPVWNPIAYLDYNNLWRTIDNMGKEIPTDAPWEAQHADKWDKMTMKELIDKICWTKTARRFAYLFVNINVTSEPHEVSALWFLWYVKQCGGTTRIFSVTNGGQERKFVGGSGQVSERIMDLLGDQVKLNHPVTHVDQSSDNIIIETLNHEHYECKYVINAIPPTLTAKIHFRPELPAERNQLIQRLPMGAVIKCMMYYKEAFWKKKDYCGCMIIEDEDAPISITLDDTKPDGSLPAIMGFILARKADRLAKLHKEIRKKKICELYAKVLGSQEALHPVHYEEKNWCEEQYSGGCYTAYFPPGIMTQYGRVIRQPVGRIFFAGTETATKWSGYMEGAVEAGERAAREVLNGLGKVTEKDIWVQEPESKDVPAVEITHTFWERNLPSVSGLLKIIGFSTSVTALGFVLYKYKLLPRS
Test: Inhibition of human recombinant MAO-A expressed in insect cell microsome assessed as 4-hydroxyquinoline formation using kynuramine as substrate at 100 uM after 20 mins by fluorescence spectrophotometry
Format: microsomes
Conditions: not given; call rule not given here

| inhibition (INH) | SMILES |
| --- | --- |
| Not Active | Cn1c(=O)c2c(nc(SCCc3ccc(C(F)(F)F)cc3)n2C)n(C)c1=O |

System: not listed separately
Test: Octanol-water partition coefficient, log P of the compound by shake flask method
Format: physicochemical
Conditions: not given

| logP | SMILES |
| --- | --- |
| 3.76 | Cn1c(=O)c2c(nc(SCCCc3cccc(Cl)c3)n2C)n(C)c1=O |
| 2.55 | COc1ccc(CCSc2nc3c(c(=O)n(C)c(=O)n3C)n2C)cc1 |
| 3.21 | Cn1c(=O)c2c(nc(SCCc3ccc(C(F)(F)F)cc3)n2C)n(C)c1=O |
| 2.98 | Cn1c(=O)c2c(nc(SCCc3ccc(Br)cc3)n2C)n(C)c1=O |
| 3.14 | Cn1c(=O)c2c(nc(SCCc3cccc(C(F)(F)F)c3)n2C)n(C)c1=O |
| 3.59 | Cn1c(=O)c2c(nc(SCCCc3ccc(Cl)cc3)n2C)n(C)c1=O |
| 3.22 | Cn1c(=O)c2c(nc(SCCc3ccccc3)n2C)n(C)c1=O |
| 3.3 | Cn1c(=O)c2c(nc(SCCCc3ccccc3)n2C)n(C)c1=O |
| 3.15 | Cc1ccc(CCSc2nc3c(c(=O)n(C)c(=O)n3C)n2C)cc1 |

Biological target: T2, Amine oxidase [flavin-containing] B (Homo sapiens, UniProt P27338)
T2 sequence (P27338 whole entry): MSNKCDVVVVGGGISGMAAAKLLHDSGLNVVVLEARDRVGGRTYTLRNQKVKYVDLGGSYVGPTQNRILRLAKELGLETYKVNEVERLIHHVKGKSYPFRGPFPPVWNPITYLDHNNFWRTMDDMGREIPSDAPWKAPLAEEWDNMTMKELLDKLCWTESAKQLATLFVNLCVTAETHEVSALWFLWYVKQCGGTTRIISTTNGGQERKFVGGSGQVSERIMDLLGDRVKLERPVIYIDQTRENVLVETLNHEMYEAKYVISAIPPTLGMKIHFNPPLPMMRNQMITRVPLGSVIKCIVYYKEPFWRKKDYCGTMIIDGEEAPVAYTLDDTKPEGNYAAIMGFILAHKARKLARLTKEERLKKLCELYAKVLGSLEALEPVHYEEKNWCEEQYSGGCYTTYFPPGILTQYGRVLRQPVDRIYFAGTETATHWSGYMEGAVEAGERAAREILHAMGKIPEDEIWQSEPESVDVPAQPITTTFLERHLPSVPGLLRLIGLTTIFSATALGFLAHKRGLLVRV
Test: Competitive inhibition of human recombinant MAO-B expressed in insect cell microsome using kynuramine as substrate by Morrison equation analysis
Format: microsomes
Conditions: not given

| Ki [nM] | SMILES |
| --- | --- |
| 9.8 | Cn1c(=O)c2c(nc(SCCc3ccc(Cl)cc3)n2C)n(C)c1=O |

Biological target: T2, Amine oxidase [flavin-containing] B
Test: Competitive inhibition of human recombinant MAO-B expressed in insect cell microsome using kynuramine as substrate by Lineweaver-Burk plot analysis
Format: microsomes
Conditions: not given

| Ki [nM] | SMILES |
| --- | --- |
| 13 | Cn1c(=O)c2c(nc(SCCc3ccc(Cl)cc3)n2C)n(C)c1=O |

Biological target: T2, Amine oxidase [flavin-containing] B
Test: (§1) Reversible inhibition of human recombinant MAO-B expressed in insect cell microsome assessed as enzyme activity recovery using kynuramine as substrate preincubated for 30 mins at 100xIC50 measured after 20 mins following 100-fold compound dilution with addition of substrate by fluorescence spectrophotometry
Format: microsomes
Set-up: scale not given: the % may be the effect or the level left
Conditions: not given

| Activity [%] | SMILES |
| --- | --- |
| 22 | Cn1c(=O)c2c(nc(SCCc3cccc(C(F)(F)F)c3)n2C)n(C)c1=O |
| 26 | Cn1c(=O)c2c(nc(SCCc3ccc(Cl)cc3)n2C)n(C)c1=O |

Biological target: T2, Amine oxidase [flavin-containing] B
Test: as §1, with “4-hydroxyquinoline formation” for “enzyme activity recovery”, “15 to 60” for “30”, “2 times IC50” for “100xIC50”, “15” for “20”, “twofold” for “100-fold”
Format: microsomes
Conditions: 0.25 h

| inhibition (INH) | SMILES |
| --- | --- |
| Active | Cn1c(=O)c2c(nc(SCCc3ccc(Cl)cc3)n2C)n(C)c1=O |

Biological target: T1, Amine oxidase [flavin-containing] A
Test: (§2) Reversible inhibition of human recombinant MAO-A expressed in insect cell microsome assessed as 4-hydroxyquinoline formation using kynuramine as substrate preincubated for 15 to 60 mins at 2 times IC50 measured after 15 mins following twofold compound dilution with addition of substrate by fluorescence spectrophotometry
Format: microsomes
Conditions: 0.25 h

| inhibition (INH) | SMILES |
| --- | --- |
| Active | Cn1c(=O)c2c(nc(SCCc3ccc(Cl)cc3)n2C)n(C)c1=O |

Biological target: T2, Amine oxidase [flavin-containing] B
Test: as §2, with “Time dependent” for “Reversible”, “MAO-B” for “MAO-A”
Format: microsomes
Conditions: 0.25 h

| inhibition (INH) | SMILES |
| --- | --- |
| Active | Cn1c(=O)c2c(nc(SCCc3ccc(Cl)cc3)n2C)n(C)c1=O |

Organism: Homo sapiens
Test: Selectivity index, ratio of IC50 for human recombinant MAO-A to IC50 for human recombinant MAO-B
Conditions: not given

| Ratio IC50 | SMILES |
| --- | --- |
| 68 | Cn1c(=O)c2c(nc([S+]([O-])CCc3ccc(F)cc3)n2C)n(C)c1=O (stereo unspecified) |
| 132 | Cn1c(=O)c2c(nc(SCCc3cccc(Cl)c3)n2C)n(C)c1=O |
| 57 | Cn1c(=O)c2c(nc(SCCCc3cccc(Cl)c3)n2C)n(C)c1=O |
| 143 | Cn1c(=O)c2c(nc(SCCc3cccc(Br)c3)n2C)n(C)c1=O |
| 122 | Cn1c(=O)c2c(nc([S+]([O-])CCc3ccc(Br)cc3)n2C)n(C)c1=O (stereo unspecified) |
| 7300 | COc1ccc(CCSc2nc3c(c(=O)n(C)c(=O)n3C)n2C)cc1 |
| 2 | Cn1c(=O)c2c(nc([S+]([O-])Cc3ccccc3)n2C)n(C)c1=O (stereo unspecified) |
| 190 | Cn1c(=O)c2c(nc(SCc3cccc(Br)c3)n2C)n(C)c1=O |
| 5680 | Cn1c(=O)c2c(nc(SCCc3ccc(Br)cc3)n2C)n(C)c1=O |
| 8290 | Cn1c(=O)c2c(nc(SCCc3cccc(C(F)(F)F)c3)n2C)n(C)c1=O |
| 28 | Cn1c(=O)c2c(nc(SCc3cccc(Cl)c3)n2C)n(C)c1=O |
| 235 | Cc1cccc(CCSc2nc3c(c(=O)n(C)c(=O)n3C)n2C)c1 |
| 207 | Cn1c(=O)c2c(nc(SCCc3ccc(F)cc3)n2C)n(C)c1=O |
| 260 | Cn1c(=O)c2c(nc([S+]([O-])CCc3ccc(Cl)cc3)n2C)n(C)c1=O (stereo unspecified) |
| 12 | Cn1c(=O)c2c(nc(SCCCc3ccc(Cl)cc3)n2C)n(C)c1=O |
| 69 | Cn1c(=O)c2c(nc(SCCc3ccccc3)n2C)n(C)c1=O |
| 385 | COc1cccc(CCSc2nc3c(c(=O)n(C)c(=O)n3C)n2C)c1 |
| 423 | Cn1c(=O)c2c(nc(SCCc3ccc(Cl)cc3)n2C)n(C)c1=O |
| 1740 | Cc1ccc(CCSc2nc3c(c(=O)n(C)c(=O)n3C)n2C)cc1 |

Biological target: T1, Amine oxidase [flavin-containing] A
Test: Inhibition of human recombinant MAO-A expressed in insect cell microsome assessed as 4-hydroxyquinoline formation using kynuramine as substrate after 20 mins by fluorescence spectrophotometry
Format: microsomes
Conditions: not given

| IC50 [nM] | SMILES |
| --- | --- |
| 239000 | Cn1c(=O)c2c(nc([S+]([O-])CCc3ccc(F)cc3)n2C)n(C)c1=O (stereo unspecified) |
| 5660 | Cn1c(=O)c2c(nc(SCCc3cccc(Cl)c3)n2C)n(C)c1=O |
| 3530 | Cn1c(=O)c2c(nc(SCCCc3cccc(Cl)c3)n2C)n(C)c1=O |
| 5700 | Cn1c(=O)c2c(nc(SCCc3cccc(Br)c3)n2C)n(C)c1=O |
| 57300 | Cn1c(=O)c2c(nc([S+]([O-])CCc3ccc(Br)cc3)n2C)n(C)c1=O (stereo unspecified) |
| 168000 | COc1ccc(CCSc2nc3c(c(=O)n(C)c(=O)n3C)n2C)cc1 |
| 250000 | Cn1c(=O)c2c(nc([S+]([O-])Cc3ccccc3)n2C)n(C)c1=O (stereo unspecified) |
| 37900 | Cn1c(=O)c2c(nc(SCc3cccc(Br)c3)n2C)n(C)c1=O |
| 108000 | Cn1c(=O)c2c(nc(SCCc3ccc(Br)cc3)n2C)n(C)c1=O |
| 141000 | Cn1c(=O)c2c(nc(SCCc3cccc(C(F)(F)F)c3)n2C)n(C)c1=O |
| 6430 | Cn1c(=O)c2c(nc(SCc3cccc(Cl)c3)n2C)n(C)c1=O |
| 12000 | Cc1cccc(CCSc2nc3c(c(=O)n(C)c(=O)n3C)n2C)c1 |
| 14700 | Cn1c(=O)c2c(nc(SCCc3ccc(F)cc3)n2C)n(C)c1=O |
| 203000 | Cn1c(=O)c2c(nc([S+]([O-])CCc3ccc(Cl)cc3)n2C)n(C)c1=O (stereo unspecified) |
| 708 | Cn1c(=O)c2c(nc(SCCCc3ccc(Cl)cc3)n2C)n(C)c1=O |
| 18700 | Cn1c(=O)c2c(nc(SCCc3ccccc3)n2C)n(C)c1=O |
| 48100 | COc1cccc(CCSc2nc3c(c(=O)n(C)c(=O)n3C)n2C)c1 |
| 6480 | Cn1c(=O)c2c(nc(SCCCc3ccccc3)n2C)n(C)c1=O |
| 8460 | Cn1c(=O)c2c(nc(SCCc3ccc(Cl)cc3)n2C)n(C)c1=O |
| 125000 | Cc1ccc(CCSc2nc3c(c(=O)n(C)c(=O)n3C)n2C)cc1 |

Biological target: T2, Amine oxidase [flavin-containing] B
Conditions: not given

| IC50 [nM] | SMILES |
| --- | --- |
| 3500 | Cn1c(=O)c2c(nc([S+]([O-])CCc3ccc(F)cc3)n2C)n(C)c1=O (stereo unspecified) |
| 43 | Cn1c(=O)c2c(nc(SCCc3cccc(Cl)c3)n2C)n(C)c1=O |
| 62 | Cn1c(=O)c2c(nc(SCCCc3cccc(Cl)c3)n2C)n(C)c1=O |
| 40 | Cn1c(=O)c2c(nc(SCCc3cccc(Br)c3)n2C)n(C)c1=O |
| 471 | Cn1c(=O)c2c(nc([S+]([O-])CCc3ccc(Br)cc3)n2C)n(C)c1=O (stereo unspecified) |
| 23 | COc1ccc(CCSc2nc3c(c(=O)n(C)c(=O)n3C)n2C)cc1 |
| 131000 | Cn1c(=O)c2c(nc([S+]([O-])Cc3ccccc3)n2C)n(C)c1=O (stereo unspecified) |
| 19 | Cn1c(=O)c2c(nc(SCCc3ccc(C(F)(F)F)cc3)n2C)n(C)c1=O |
| 199 | Cn1c(=O)c2c(nc(SCc3cccc(Br)c3)n2C)n(C)c1=O |
| 19 | Cn1c(=O)c2c(nc(SCCc3ccc(Br)cc3)n2C)n(C)c1=O |
| 17 | Cn1c(=O)c2c(nc(SCCc3cccc(C(F)(F)F)c3)n2C)n(C)c1=O |
| 227 | Cn1c(=O)c2c(nc(SCc3cccc(Cl)c3)n2C)n(C)c1=O |
| 51 | Cc1cccc(CCSc2nc3c(c(=O)n(C)c(=O)n3C)n2C)c1 |
| 71 | Cn1c(=O)c2c(nc(SCCc3ccc(F)cc3)n2C)n(C)c1=O |
| 781 | Cn1c(=O)c2c(nc([S+]([O-])CCc3ccc(Cl)cc3)n2C)n(C)c1=O (stereo unspecified) |
| 61 | Cn1c(=O)c2c(nc(SCCCc3ccc(Cl)cc3)n2C)n(C)c1=O |
| 271 | Cn1c(=O)c2c(nc(SCCc3ccccc3)n2C)n(C)c1=O |
| 125 | COc1cccc(CCSc2nc3c(c(=O)n(C)c(=O)n3C)n2C)c1 |
| 20 | Cn1c(=O)c2c(nc(SCCc3ccc(Cl)cc3)n2C)n(C)c1=O |
| 72 | Cc1ccc(CCSc2nc3c(c(=O)n(C)c(=O)n3C)n2C)cc1 |
